According to PMC9505425, “Targeting of the Mitochondrial TET1 Protein by Pyrrolo[3,2-b]pyrrole Chelators” (International Journal of Molecular Sciences, 2022):
Where “and” joins values, the source holds several entries; their conditions need not be identical. Identical values can stand only once.

What was measured:
[1] = system: U-118 MG cells; assay: MTT cytotoxicity assay, U-118 MG; type: cell-based, human; conditions: 48 h
Experimental: (§1) The effects of the tested compounds 1–6 on HF-P4, U-118 MG, H1299, BT-20, and Caov-3 cell lines were evaluated by the MTT assay during 48 h treatment (Table 2 and Tables S2–S31). In all tested compounds, we recognized a difference in cytotoxicity between healthy cells (HF-P4) and cancer cell lines (BT-20, Caov-3, and H-1299). […] In the case of ovarian cancer, the authors discovered oncogenic and poor prognosis roles of TET1 in epithelial ovarian carcinoma (EOC). TET1 is believed to demethylate the epigenome and activate numerous oncogenic pathways in EOC. The aforementioned study presents a new mechanism where TET1 contributes to tumor development through collaboration with CK2α [21]. The overexpression of the TET1 protein was also found in triple negative breast cancer and was associated with an activation of PI3K/mTOR pathway and decreased overall survival.
A human glioblastoma cell line (U118-MG) and a human non-small-cell lung carcinoma cell line (H1299) were used for the cytotoxicity assay (MTT). Both cell lines were generously supplied by Dr. M. Masařik, PhD, Department of Pathological physiology, Masaryk University, Czech Republic. U118-MG cells were cultivated under standard conditions in Dulbecco’s modified Eagle’s medium (ATCC, Manassas, VA, USA) supplemented with 10% FBS and streptomycin (100 μg/mL) at 37 °C at a 5% CO2 atmosphere. H1299 cells were cultivated under standard conditions in RPMI 1640 (BioTech, Prague, Czech Republic) medium supplemented with 10% FBS and streptomycin (100 μg/mL) at 37 °C at a 5% CO2 atmosphere.
(§2) For the cytotoxicity assay, we used the following cell lines: human glioblastoma cell line U118-MG, human mammary gland/breast cell line BT-20, human ovary adenocarcinoma cell line Caov-3, and non-small-cell lung carcinoma H-1299. As previously mentioned, these cell lines contain a high level of the TET1 protein, which corresponds to a lower overall survival. In addition to these cell cultures, we used the human dermal fibroblast cell line HF-P4 as a healthy control. Determination of cytotoxicity was performed using the MTT [3-(4,5-dimethylthiazol-2-yl)-2,5-diphenyltetrazolium bromide] colorimetric assay. Viable cells from each cell line were cultured in 96-well plates (VWR, Stříbrná Skalice, Czech Republic) at a density of 1.0 × 10^5 cells per well and allowed to grow for 24 h in 200 μL of recommended medium. After a 1-day incubation, the medium was replaced with solutions of compounds 1–6 at concentration ranges of 0.1–20 μM. Each concentration was measured four times within one test, and the entire test was repeated three times. Tested compounds 1–6 were dissolved in DMSO and then diluted with corresponding medium to a final volume of 200 μL (maximum 1% DMSO). After 48 h exposure, cells were treated with 175 μL of MTT solution (P-LAB, Prague, Czech Republic) for 2 h. In the next step, MTT solution was removed, and 125 μL of DMSO (Penta, Prague, Czech Republic) was added to solubilize dark crystals of formazan formed in intact cells, and absorbance was measured at 570 nm by the enzyme-linked immunoabsorbent assay reader Infinite® 200 PRO (Tecan, Männedorf, Switzerland). The final DMSO concentration was smaller than 1% (v/v). The absorbance of untreated cells was considered 100%, and IC50 values were calculated by the GraphPad Prism 8 software. As a parameter for cytotoxicity, we used a concentration that inhibits 50% of cell growth (IC50).

[2] = system: BT-20 cells; assay: MTT cytotoxicity assay, BT-20; type: cell-based, human
Experimental: as §1
The human mammary gland/breast cell line (BT-20), purchased from ATCC (BT-20 (ATCC® HTB-19™), Manassas, VA, USA), was used for the cytotoxicity assay (MTT), and BT-20 cells were cultivated under standard conditions in Eagle’s minimum essential medium (ATCC, Manassas, VA, USA) supplemented with 10% FBS and streptomycin (100 μg/mL) at 37 °C at a 5% CO2 atmosphere.
as §2

Q: With `COc1cccc(/C=N/NC(=O)c2ccc(-c3cc4c(cc(-c5ccc(C(=O)N/N=C/c6cccc(OC)c6O)cc5)n4-c4ccc(C)cc4)n3-c3ccc(C)cc3)cc2)c1O` [Compound 5] as the molecule, how does the viability at 0.1 µM ([1]; Homo sapiens, U-118-MG, U-118 MG, 100 nM, repeats, read-out: Cell viability %) read?
A: 97.8%

Q: What about the viability at 0.5 µM ([1]; Homo sapiens, U-118-MG, U-118 MG, 500 nM, repeats, read-out: Cell viability %) of the same molecule?
A: 91.7%

Q: And the viability at 1 µM ([1]; Homo sapiens, U-118-MG, U-118 MG, 1 uM, repeats, read-out: Cell viability %)?
A: 87.4%

Q: And the viability at 2.5 µM ([1]; Homo sapiens, U-118-MG, U-118 MG, 2.5 uM, repeats, read-out: Cell viability %)?
A: 58.2%

Q: And the viability at 5 µM ([1]; Homo sapiens, U-118-MG, U-118 MG, 5 uM, repeats, read-out: Cell viability %)?
A: 65.3%

Q: What about the viability at 7.5 µM ([1]; Homo sapiens, U-118-MG, U-118 MG, 7.5 uM, repeats, read-out: Cell viability %) of the same molecule?
A: 47.2%

Q: And the viability at 10 µM ([1]; Homo sapiens, U-118-MG, U-118 MG, 10 uM, repeats, read-out: Cell viability %)?
A: 45.5%

Q: What about the viability at 15 µM ([1]; Homo sapiens, U-118-MG, U-118 MG, 15 uM, repeats, read-out: Cell viability %) of the same molecule?
A: 28.9%

Q: What about the viability at 20 µM ([1]; Homo sapiens, U-118-MG, U-118 MG, 20 uM, repeats, read-out: Cell viability %) of the same molecule?
A: 21%

Q: What about the IC50 ([1]; Homo sapiens, U-118-MG, MTT) of the same molecule?
A: 6.85 µM

Q: What about the Cell viability % ([1]; U-118 MG, 100 nM, repeats, 0.1 µM) of the same molecule?
A: 97.5% and 97.94%

Q: And the Cell viability % ([1]; U-118 MG, 500 nM, repeats, 0.5 µM)?
A: 83.56% and 99.84%

Q: And the Cell viability % ([1]; U-118 MG, 750 nM, repeats, 0.75 µM)?
A: 101.0241% and 97.49% and 72.15%

Q: What about the Cell viability % ([1]; U-118 MG, 1 uM, repeats) of the same molecule?
A: 91.36% and 94.35%

Q: What about the Cell viability % ([1]; U-118 MG, 2.5 uM, repeats) of the same molecule?
A: 62.67% and 72.48%

Q: And the Cell viability % ([1]; U-118 MG, 5 uM, repeats)?
A: 61.9341% and 54.55%

Q: And the Cell viability % ([1]; U-118 MG, 7.5 uM, repeats)?
A: 44.6% and 36.58%

Q: And the Cell viability % ([1]; U-118 MG, 10 uM, repeats)?
A: 44.7379% and 34.31%

Q: What about the Cell viability % ([1]; U-118 MG, 15 uM, repeats) of the same molecule?
A: 30.3% and 23.7185%

Q: What about the Cell viability % ([1]; U-118 MG, 20 uM, repeats) of the same molecule?
A: 24.2419% and 18.84%

Q: What about the Cell viability % ([2]; BT-20, 100 nM, 48 h, repeats, 0.1 µM) of the same molecule?
A: 94.73% and 89.5899%

Q: What about the Cell viability % ([2]; BT-20, 500 nM, 48 h, repeats, 0.5 µM) of the same molecule?
A: 90.47% and 107.0261%

Q: What about the Cell viability % ([2]; BT-20, 750 nM, 48 h, repeats, 0.75 µM) of the same molecule?
A: 86.64% and 81% and 102.8391%

Q: What about the Cell viability % ([2]; BT-20, 1 uM, 48 h, repeats, 1 µM) of the same molecule?
A: 92.1% and 100.302%

Q: And the Cell viability % ([2]; BT-20, 2.5 uM, 48 h, repeats, 2.5 µM)?
A: 80.3% and 100.57% and 104.0262%

Q: And the Cell viability % ([2]; BT-20, 5 uM, 48 h, repeats, 5 µM)?
A: 60.99% and 87.49% and 89.1%

Q: And the Cell viability % ([2]; BT-20, 7.5 uM, 48 h, repeats, 7.5 µM)?
A: 52.633% and 55.7373%

Q: What about the Cell viability % ([2]; BT-20, 10 uM, 48 h, repeats, 10 µM) of the same molecule?
A: 52.47% and 37.54%

Q: What about the Cell viability % ([2]; BT-20, 15 uM, 48 h, repeats, 15 µM) of the same molecule?
A: 28.45% and 34.27%

Q: And the Cell viability % ([2]; BT-20, 20 uM, 48 h, repeats, 20 µM)?
A: 18.3694% and 26.24%

Q: And the viability at 0.1 µM ([2]; Homo sapiens, BT-20, 48 h, BT-20, 100 nM, repeats, read-out: Cell viability %)?
A: 86%

Q: And the viability at 0.5 µM ([2]; Homo sapiens, BT-20, 48 h, BT-20, 500 nM, repeats, read-out: Cell viability %)?
A: 97.4%

Q: And the viability at 1 µM ([2]; Homo sapiens, BT-20, 48 h, BT-20, 1 uM, repeats, read-out: Cell viability %)?
A: 99%

Q: And the viability at 7.5 µM ([2]; Homo sapiens, BT-20, 48 h, BT-20, 7.5 uM, repeats, read-out: Cell viability %)?
A: 45.7%

Q: What about the viability at 10 µM ([2]; Homo sapiens, BT-20, 48 h, BT-20, 10 uM, repeats, read-out: Cell viability %) of the same molecule?
A: 41.3%

Q: And the viability at 15 µM ([2]; Homo sapiens, BT-20, 48 h, BT-20, 15 uM, repeats, read-out: Cell viability %)?
A: 28.5%

Q: And the viability at 20 µM ([2]; Homo sapiens, BT-20, 48 h, BT-20, 20 uM, repeats, read-out: Cell viability %)?
A: 20.9%

Q: And the IC50 ([2]; Homo sapiens, BT-20, MTT, 48 h)?
A: 11.2 µM
